In Sander's compilation of Henry's law constants (doi:10.1016/s0378-3812(99)00193-4):

Assay: Henry solubility constant Hcp at 298.15 K (mol/(m3 Pa))
Details: reference: Ryu and Park (1999)

## Cc1ccc(C)cc1 [1,4-dimethylbenzene]
  Henry solubility constant Hcp: 0.0014

## c1ccccc1 [benzene]
  Henry solubility constant Hcp: 0.0017

## CCCCc1ccccc1 [butylbenzene]
  Henry solubility constant Hcp: 0.00074

## Clc1ccccc1 [chlorobenzene]
  Henry solubility constant Hcp: 0.0019

## ClCCl [dichloromethane]
  Henry solubility constant Hcp: 0.0041

## CCc1ccccc1 [ethylbenzene]
  Henry solubility constant Hcp: 0.0011

## CCCCCCC [heptane]
  Henry solubility constant Hcp: 4.5e-06

## CCCCCC [hexane]
  Henry solubility constant Hcp: 6.1e-06

## Cc1ccccc1 [methylbenzene]
  Henry solubility constant Hcp: 0.0015

## CCCCCCCCC [nonane]
  Henry solubility constant Hcp: 2.2e-06

## CCCCCCCC [octane]
  Henry solubility constant Hcp: 3.4e-06

## CCCCCc1ccccc1 [pentylbenzene]
  Henry solubility constant Hcp: 0.00061

## ClC(Cl)=C(Cl)Cl [tetrachloroethene]
  Henry solubility constant Hcp: 0.00053

## ClC(Cl)(Cl)Cl [tetrachloromethane]
  Henry solubility constant Hcp: 0.00038

## ClC=C(Cl)Cl [trichloroethene]
  Henry solubility constant Hcp: 0.00095
